Measured values as given in patent US10995101B2, “2-oxo-thiazole derivatives as A2A inhibitors and compounds for use in the treatment of cancers” (iTeos Therapeutics SA, priority 2017, dated 2021).

What was measured:
[1] = in vitro; conditions: human, Caco-2, pH 7.4
[2] = target: A2A receptor (Homo sapiens, UniProt P29274); experiment: Inhibition of cAMP production in HEK cells; type: cell-based; conditions: HEK-293 cells with A2A receptor
[3] = IC50 (nM) (3 nM NECA as agonist, 0.1% BSA), 3 nM NECA as agonist, 0.1% BSA
[4] = IC50 (nM) (5 nM NECA as agonist, 2% HSA), 5 nM NECA as agonist, 2% HSA
[5] = IC50 (nM) (5 μM Adenosine as agonist, 2.0% HSA), 5 μM Adenosine as agonist, 2.0% HSA

A2A receptor, sequence (P29274 whole entry): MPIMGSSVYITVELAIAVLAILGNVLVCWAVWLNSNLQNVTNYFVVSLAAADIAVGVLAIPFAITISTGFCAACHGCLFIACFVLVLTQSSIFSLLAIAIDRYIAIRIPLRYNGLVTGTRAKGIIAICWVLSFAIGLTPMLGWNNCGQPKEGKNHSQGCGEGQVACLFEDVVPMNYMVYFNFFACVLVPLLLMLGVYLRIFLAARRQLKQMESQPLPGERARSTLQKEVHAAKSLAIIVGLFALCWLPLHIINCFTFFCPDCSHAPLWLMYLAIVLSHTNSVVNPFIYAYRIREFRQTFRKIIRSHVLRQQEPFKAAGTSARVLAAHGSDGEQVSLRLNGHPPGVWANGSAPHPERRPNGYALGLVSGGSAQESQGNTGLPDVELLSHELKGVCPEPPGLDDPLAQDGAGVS

| SMILES | efflux ratio at 120 min, 2 μM [1] | IC50 [2, 3] [nM] | IC50 [2, 4] [nM] | IC50 [2, 5] [nM] |
| --- | --- | --- | --- | --- |
| Cn1cnc(COc2ccc(N3CCN(CCn4c(=O)sc5c4nc(N)n4nc(-c6ccco6)nc54)CC3)c(F)c2)n1 [Compound 67, 5-amino-3-(2-(4-(2-fluoro-4-((1-methyl-1H-1,2,4-triazol-3-yl)methoxy)phenyl)piperazin-1-yl)ethyl)-8-(furan-2-yl)thiazolo[5,4-e][1,2,4]triazolo[1,5-c]pyrimidin-2(3H)-one] | 15 | 0.6 | 9 | 378 |
| Cn1cnc(COc2cc(N3CCN(CCn4c(=O)sc5c4nc(N)n4nc(-c6ccco6)nc54)CC3)c(F)cc2F)n1 [Compound 68, 5-amino-3-(2-(4-(2,4-difluoro-5-((1-methyl-1H-1,2,4-triazol-3-yl)methoxy)phenyl)piperazin-1-yl)ethyl)-8-(furan-2-yl)thiazolo[5,4-e][1,2,4]triazolo[1,5-c]pyrimidin-2(3H)-one] | 108 | 14 | 123 | 2700 |
| CN(CCNC(=O)c1ccc(N2CCN(CCn3c(=O)sc4c3nc(N)n3nc(-c5ccco5)nc43)CC2)c(F)c1)C1COC1 [Compound 69, 4-(4-(2-(5-amino-8-(furan-2-yl)-2-oxothiazolo[5,4-e][1,2,4]triazolo[1,5-c]pyrimidin-3(2H)-yl)ethyl)piperazin-1-yl)-3-fluoro-N-(2-(methyl(oxetan-3-yl)amino)ethyl)benzamide] | 201 | 0.5 | 5 | 211 |
| Nc1nc2c(sc(=O)n2CCN2CCN(c3ccc(C(=O)NCCNCCO)cc3F)CC2)c2nc(-c3ccco3)nn12 [Compound 70, 4-(4-(2-(5-amino-8-(furan-2-yl)-2-oxothiazolo[5,4-e][1,2,4]triazolo[1,5-c]pyrimidin-3(2H)-yl)ethyl)piperazin-1-yl)-3-fluoro-N-(2-((2-hydroxyethyl)amino)ethyl)benzamide] | 53 | 0.6 | 3 | 124 |
| NCC(=O)NCCOc1ccc(N2CCN(CCn3c(=O)sc4c3nc(N)n3nc(-c5ccco5)nc43)CC2)c(F)c1 [Compound 71, 2-amino-N-(2-(4-(4-(2-(5-amino-8-(furan-2-yl)-2-oxothiazolo[5,4-e][1,2,4]triazolo[1,5-c]pyrimidin-3(2H)-yl)ethyl)piperazin-1-yl)-3-fluorophenoxy)ethyl)acetamide] | 28 | 0.4 | 3 | 79 |
| CC(C)[C@H](N)C(=O)NCCOc1ccc(N2CCN(CCn3c(=O)sc4c3nc(N)n3nc(-c5ccco5)nc43)CC2)c(F)c1 [Compound 72, (S)-2-amino-N-(2-(4-(4-(2-(5-amino-8-(furan-2-yl)-2-oxothiazolo[5,4-e][1,2,4]triazolo[1,5-c]pyrimidin-3(2H)-yl)ethyl)piperazin-1-yl)-3-fluorophenoxy)ethyl)-3-methylbutanamide] | 21 | 1 | 3 | 86 |
| N#CCOc1cc(N2CCN(CCn3c(=O)sc4c3nc(N)n3nc(-c5ccco5)nc43)CC2)c(F)cc1F [Compound 74, 2-(5-(4-(2-(5-amino-8-(furan-2-yl)-2-oxothiazolo[5,4-e][1,2,4]triazolo[1,5-c]pyrimidin-3(2H)-yl)ethyl)piperazin-1-yl)-2,4-difluorophenoxy)acetonitrile] | 4 | 1.2 | 20 | 495 |
| CS(=O)(=O)CCOc1cc(N2CCN(CCn3c(=O)sc4c3nc(N)n3nc(-c5ccco5)nc43)CC2)c(F)cc1F [Compound 77, 5-amino-3-(2-(4-(2,4-difluoro-5-(2-(methylsulfonyl)ethoxy)phenyl)piperazin-1-yl)ethyl)-8-(furan-2-yl)thiazolo[5,4-e][1,2,4]triazolo[1,5-c]pyrimidin-2(3H)-one] | 43 | 0.5 | 3 | 158 |
| CS(=O)(=O)CCOc1ccc(N2CCN(CCn3c(=O)sc4c3nc(N)n3nc(-c5ccco5)nc43)CC2)c(F)c1 [Compound 78, 5-amino-3-(2-(4-(2-fluoro-4-(2-(methylsulfonyl)ethoxy)phenyl)piperazin-1-yl)ethyl)-8-(furan-2-yl)thiazolo[5,4-e][1,2,4]triazolo[1,5-c]pyrimidin-2(3H)-one] | 45 | 0.6 | – | 130 |
| Nc1nc2c(sc(=O)n2CCN2CCN(c3cc4c(cc3F)NC(=O)C4)CC2)c2nc(-c3ccco3)nn12 [Compound 79, 5-amino-3-(2-(4-(6-fluoro-2-oxoindolin-5-yl)piperazin-1-yl)ethyl)-8-(furan-2-yl)thiazolo[5,4-e][1,2,4]triazolo[1,5-c]pyrimidin-2(3H)-one] | 47 | 0.3 | – | 77 |
| CS(=N)(=O)c1ccc(N2CCN(CCn3c(=O)sc4c3nc(N)n3nc(-c5ccco5)nc43)CC2)c(F)c1 (centres unmarked) [Compound 80, 5-amino-3-(2-(4-(2-fluoro-4-(S-methylsulfonimidoyl)phenyl)piperazin-1-yl)ethyl)-8-(furan-2-yl)thiazolo[5,4-e][1,2,4]triazolo[1,5-c]pyrimidin-2(3H)-one] | 149 | 0.4 | – | 146 |
| Cc1cc(N2CCN(CCn3c(=O)sc4c3nc(N)n3nc(-c5ccco5)nc43)CC2)c(F)cn1 [Compound 82, 5-amino-3-(2-(4-(5-fluoro-2-methylpyridin-4-yl)piperazin-1-yl)ethyl)-8-(furan-2-yl)thiazolo[5,4-e][1,2,4]triazolo[1,5-c]pyrimidin-2(3H)-one] | 3 | 0.2 | – | 15 |
| Nc1nc2c(sc(=O)n2CCN2CCN(c3ccc(O[C@@H]4COC[C@H]4O)cc3F)CC2)c2nc(-c3ccco3)nn12 [Compound 83, 5-amino-3-(2-(4-(2-fluoro-4-(((3R,4R)-4-hydroxytetrahydrofuran-3-yl)oxy)phenyl)piperazin-1-yl)ethyl)-8-(furan-2-yl)thiazolo[5,4-e][1,2,4]triazolo[1,5-c]pyrimidin-2(3H)-one] | 29 | 0.4 | – | 212 |
| Nc1nc2c(sc(=O)n2CCN2CCN(c3ccc(O[C@H]4COC[C@@H]4O)cc3F)CC2)c2nc(-c3ccco3)nn12 [Compound 84, 5-amino-3-(2-(4-(2-fluoro-4-(((3S,4S)-4-hydroxytetrahydrofuran-3-yl)oxy)phenyl)piperazin-1-yl)ethyl)-8-(furan-2-yl)thiazolo[5,4-e][1,2,4]triazolo[1,5-c]pyrimidin-2(3H)-one] | 24 | 0.1 | – | 71 |
| CC(C)(O)COc1ccc(N2CCN(CCn3c(=O)sc4c3nc(N)n3nc(-c5ccco5)nc43)CC2)c(F)c1 [Compound 85, 5-amino-3-(2-(4-(2-fluoro-4-(2-hydroxy-2-methylpropoxy)phenyl)piperazin-1-yl)ethyl)-8-(furan-2-yl)thiazolo[5,4-e][1,2,4]triazolo[1,5-c]pyrimidin-2(3H)-one] | 5 | 0.4 | – | 220 |
| CC(C)(O)c1ccc(N2CCN(CCn3c(=O)sc4c3nc(N)n3nc(-c5ccco5)nc43)CC2)c(F)c1 [Compound 86, 5-amino-3-(2-(4-(2-fluoro-4-(2-hydroxypropan-2-yl)phenyl)piperazin-1-yl)ethyl)-8-(furan-2-yl)thiazolo[5,4-e][1,2,4]triazolo[1,5-c]pyrimidin-2(3H)-one] | 5 | 0.6 | – | 747 |
| Nc1nc2c(sc(=O)n2CCN2CCN(c3ccc(OCC(O)C(F)(F)F)cc3F)CC2)c2nc(-c3ccco3)nn12 (centres unmarked) [Compound 87, 5-amino-3-(2-(4-(2-fluoro-4-(3,3,3-trifluoro-2-hydroxypropoxy)phenyl)piperazin-1-yl)ethyl)-8-(furan-2-yl)thiazolo[5,4-e][1,2,4]triazolo[1,5-c]pyrimidin-2(3H)-one] | 7 | 1.1 | – | 432 |
| Nc1nc2c(sc(=O)n2CCN2CCN(c3cc(OCCO)ccc3F)CC2)c2nc(-c3ccco3)nn12 [Compound 88, 5-amino-3-(2-(4-(2-fluoro-5-(2-hydroxyethoxy)phenyl)piperazin-1-yl)ethyl)-8-(furan-2-yl)thiazolo[5,4-e][1,2,4]triazolo[1,5-c]pyrimidin-2(3H)-one] | 19 | 0.2 | – | 22 |
| Nc1nc2c(sc(=O)n2CCN2CCN(c3cc(OCC4CNCCO4)c(F)cc3F)CC2)c2nc(-c3ccco3)nn12 (centres unmarked) [Compound 89, 5-amino-3-(2-(4-(2,4-difluoro-5-(morpholin-2-ylmethoxy)phenyl)piperazin-1-yl)ethyl)-8-(furan-2-yl)thiazolo[5,4-e][1,2,4]triazolo[1,5-c]pyrimidin-2(3H)-one] | 456 | 0.6 | – | 9 |
| Nc1nc2c(sc(=O)n2CCN2CCN(c3cc(OCC4COCCN4)c(F)cc3F)CC2)c2nc(-c3ccco3)nn12 (centres unmarked) [Compound 90, 5-amino-3-(2-(4-(2,4-difluoro-5-(morpholin-3-ylmethoxy)phenyl)piperazin-1-yl)ethyl)-8-(furan-2-yl)thiazolo[5,4-e][1,2,4]triazolo[1,5-c]pyrimidin-2(3H)-one] | 86 | 5.7 | – | 24 |
| Nc1nc2c(sc(=O)n2CCN2CCN(c3cc(O[C@H]4CCNC4=O)c(F)cc3F)CC2)c2nc(-c3ccco3)nn12 [Compound 95, (S)-5-amino-3-(2-(4-(2,4-difluoro-5-((2-oxopyrrolidin-3-yl)oxy)phenyl)piperazin-1-yl)ethyl)-8-(furan-2-yl)thiazolo[5,4-e][1,2,4]triazolo[1,5-c]pyrimidin-2(3H)-one] | 137 | 0.7 | – | 37 |
